Read-outs that look alike come from different tables or passages of the source.
Assays:
SARS-CoV-2 3CL protease = SARS-CoV-2 3CL protease (Severe acute respiratory syndrome coronavirus 2, UniProt P0DTD1); test: Inhibitory activity test against SARS-CoV-2 3CL proteases; type: biochemical
SARS-CoV-2 = test: Inhibitory activity of cytopathic effect (CPE) in HEK293T/ACE2-TMPRSS2 cells; type: cell-based; conditions: Severe acute respiratory syndrome coronavirus 2, HEK-293T, 72 h
[1] = read-out: IC50 (50% SARS-CoV-2 3CL protease inhibitory concentration)
[2] = 50% SARS-CoV-2 infected cell death inhibitory concentration, HEK293T/ACE2-TMPRSS2 cells, CellTiter-Glo 2.0 after 3 days culture, read-out: EC50
[3] = HEK293T/ACE2-TMPRSS2 cells, cultured 3 days, CellTiter-Glo 2.0 luminescence, read-out: EC50 (50% SARS-CoV-2 infected cell death inhibitory concentration)
[4] = IC50 (50% SARS-CoV-2 3CL protease inhibitory concentration)

SMILES	IC50 (SARS-CoV-2 3CL protease; [1]) [nM]	EC50 (SARS-CoV-2; [3]) [nM]	further results
COc1nc2c(=O)n(Cc3ncn(C)n3)c(=O)n(Cc3cc(F)c(F)c(Cl)c3)c2cc1-c1nc(C(C)(C)O)ccc1Cl [Compound I-0880]	4.4		EC50 (SARS-CoV-2; [2]): 17.8 nM
CNC(=O)c1nc(-c2cc3c(nc2OC)c(=O)n(Cc2ncn(C)n2)c(=O)n3Cc2cc(F)c(F)c(Cl)c2)c(Cl)cc1F [Compound I-0881]	< 100	< 100	
COc1nc2c(=O)n(Cc3ncn(C)n3)c(=O)n(Cc3cc(Cl)c(F)cc3C)c2cc1-c1nc(C(C)(C)O)ccc1Cl [Compound I-0882]	< 100	< 100	
COc1nc2c(=O)n(Cc3ncn(C)n3)c(=O)n(Cc3cc(F)c(F)c(Cl)c3)c2cc1-c1nc(C(=O)NC(C)C)ccc1Cl [Compound I-0883]	3.3		EC50 (SARS-CoV-2; [2]): 30.2 nM
COc1nc2c(=O)n(Cc3ncn(C)n3)c(=O)n(Cc3cc(Cl)c(F)cc3C)c2cc1-c1nc(C(F)F)ccc1Cl [Compound I-0884]	< 100	< 100	
COc1nc2c(=O)n(Cc3ncn(C)n3)c(=O)n(Cc3cc(F)c(F)c(Cl)c3)c2cc1-c1nc(C(=O)NC2COC2)ccc1Cl [Compound I-0885]	< 100	< 100	
COc1nc2c(=O)n(Cc3ncn(C)n3)c(=O)n(Cc3cc(F)c(F)c(Cl)c3)c2cc1-c1nc(C(=O)NC2(C)COC2)ccc1Cl [Compound I-0886]	< 100	< 100	
COc1nc2c(=O)n(Cc3ncn(C)n3)c(=O)n(Cc3cc(F)c(F)c(Cl)c3)c2cc1-c1cc(N=S(C)(C)=O)ccc1Cl [Compound I-0887]	9.8		EC50 (SARS-CoV-2; [2]): 98.2 nM
COc1cc(-c2cc(C#N)ccc2Br)cc2c1c(=O)n(Cc1ncn(C)n1)c(=O)n2Cc1cc(F)c(F)c(F)c1 [Compound I-0891]	10		EC50 (SARS-CoV-2; [2]): 12.1 nM
COc1cc(-c2cc(P(C)(C)=O)ccc2Cl)cc2c1c(=O)n(Cc1ncn(C)n1)c(=O)n2Cc1cc(F)c(F)c(F)c1 [Compound I-0893]	36		EC50 (SARS-CoV-2; [2]): 2330 nM
COc1ccc(Cl)c(-c2cc(OC)c3c(=O)n(Cc4ncn(C)n4)c(=O)n(Cc4cc(F)c(F)c(F)c4)c3c2)n1 [Compound I-0895]	< 100	100 to 1000	
COc1cc(-c2cc3cc[nH]c3cc2Cl)cc2c1c(=O)n(Cc1ncn(C)n1)c(=O)n2Cc1cc(F)c(F)c(F)c1 [Compound I-0901]	< 100	< 100	
COc1cc(-c2cc3c(C#N)c[nH]c3cc2Cl)cc2c1c(=O)n(Cc1ncn(C)n1)c(=O)n2Cc1cc(F)c(F)c(F)c1 [Compound I-0902]	8.2		EC50 (SARS-CoV-2; [2]): 104 nM
COc1cc(-c2ccc(CC#N)cc2Cl)cc2c1c(=O)n(Cc1ncn(C)n1)c(=O)n2Cc1cc(F)c(F)c(F)c1 [Compound I-0907]	< 100	100 to 1000	
COc1cc(-c2cn3nncc3cc2Cl)cc2c1c(=O)n(Cc1ncn(C)n1)c(=O)n2Cc1cc(F)c(F)c(F)c1 [Compound I-0914]	< 100	< 100	
[2H]C([2H])([2H])n1cnc(Cn2c(=O)c3c(OC)nc(N4CC[C@@H](F)C4)cc3n(Cc3cc(F)c(F)c(F)c3)c2=O)n1 [Compound I-0917]		< 100	IC50 (SARS-CoV-2 3CL protease; [4]): < 100 nM
COc1nc(N2[C@@H]3CC[C@H]2CNC3)cc2c1c(=O)n(-c1cc(C)cnn1)c(=O)n2Cc1cc(F)c(F)c(F)c1 [Compound I-0926]			IC50 (SARS-CoV-2 3CL protease; [4]): 5.1 nM; EC50 (SARS-CoV-2): 106 nM
CCn1cnc(Cn2c(=O)c3c(OC)nc(N4CC[C@@H](F)C4)cc3n(Cc3cc(F)c(F)c(F)c3)c2=O)n1 [Compound I-0927]	< 100	< 100	
COc1nc(-c2cc(C#N)ccc2Cl)cc2c1c(=O)n(-c1cc(C)cnn1)c(=O)n2Cc1cc(F)c(F)c(F)c1 [Compound I-0929]	< 100	< 100	
Cn1cnc(Cn2c(=O)c3c(=O)n(C)c(N4C[C@@H]5CC[C@H]4C5)cc3n(Cc3cc(F)c(F)c(Cl)c3)c2=O)n1 [Compound I-0930]	< 100	100 to 1000	
Cn1cnc(Cn2c(=O)c3c(=O)n(C)c(N4CCC(F)(F)C4)cc3n(Cc3cc(F)c(F)c(Cl)c3)c2=O)n1 [Compound I-0931]	< 100	100 to 1000	
Cn1cnc(Cn2c(=O)c3c4nccnc4c(N4CCCC4)cc3n(Cc3cc(F)c(F)c(F)c3)c2=O)n1 [Compound I-0932]	< 100	< 100	

SMILES	IC50 (SARS-CoV-2 3CL protease; [1]) [nM]	EC50 (SARS-CoV-2; [3]) [nM]	further results
Cn1cnc(Cn2c(=O)c3c4nccnc4c(-c4cc5c(cc4Cl)NC(=O)C5)cc3n(Cc3cc(F)c(F)c(F)c3)c2=O)n1 [Compound I-0933]	< 100	100 to 1000	
Cn1cnc(Cn2c(=O)c3c4nccnc4c(-c4cc(C#N)ccc4Cl)cc3n(Cc3cc(F)c(F)c(F)c3)c2=O)n1 [Compound I-0934]	< 100	< 100	
COc1nc(N2CC[C@@H](C#N)C2)cc2c1c(=O)n(-c1cncc(Cl)c1)c(=O)n2-c1ccc(F)c(Cl)c1 [Compound I-0936]	1.1		EC50 (SARS-CoV-2; [2]): 5.34 nM
[2H]C([2H])([2H])O[C@@H]1CCN(c2cc3c(c(OC)n2)c(=O)n(-c2cncc(C)c2)c(=O)n3-c2ccc(F)c(Cl)c2)C1 [Compound I-0937]	1.3		EC50 (SARS-CoV-2; [2]): 5.56 nM
COc1nc(N2CC[C@@H](C#N)C2)cc2c1c(=O)n(-c1cncc(F)c1)c(=O)n2-c1ccc(F)c(Cl)c1 [Compound I-0938]	< 100	< 100	
COc1nc(N2CC[C@@H](C#N)C2)cc2c1c(=O)n(-c1cncc(C#N)c1)c(=O)n2-c1ccc(F)c(Cl)c1 [Compound I-0939]	< 100	< 100	
COc1nc(N2C[C@@H]3C[C@H]2CO3)cc2c1c(=O)n(-c1cncc(C#N)c1)c(=O)n2-c1ccc(F)c(Cl)c1 [Compound I-0940]	1.7		EC50 (SARS-CoV-2; [2]): 5.66 nM
COc1nc(N2CC[C@@H](C#N)C2)cc2c1c(=O)n(-c1cncc(OCF)c1)c(=O)n2-c1ccc(F)c(Cl)c1 [Compound I-0941]	< 100	< 100	
[2H]C([2H])([2H])O[C@@H]1CCN(c2cc3c(c(OC)n2)c(=O)n(-c2cnc4cc(F)ccn24)c(=O)n3-c2cc(F)c(F)c(Cl)c2)C1 [Compound I-0942]	< 100	< 100	
COc1nc(N2C[C@@H]3C[C@H]2CO3)cc2c1c(=O)n(-c1cnc3cc(F)ccn13)c(=O)n2-c1ccc(F)c(Cl)c1 [Compound I-0943]	< 100	< 100	
COc1nc(N2CC[C@@H](O)C2)cc2c1c(=O)n(-c1cncc(Cl)c1)c(=O)n2-c1ccc(F)c(Cl)c1 [Compound I-0944]	< 100	< 100	
COc1nc(N2CC[C@@H](C#N)C2)cc2c1c(=O)n(-c1cncc(C(F)F)c1)c(=O)n2-c1ccc(F)c(Cl)c1 [Compound I-0945]	< 100	< 100	
COc1nc(N2CC[C@@H](C#N)C2)cc2c1c(=O)n(-c1cnc3cc(F)c(F)cn13)c(=O)n2-c1ccc(F)c(Cl)c1 [Compound I-0946]	< 100	< 100	
[2H]C([2H])([2H])O[C@@H]1CCN(c2cc3c(c(OC)n2)c(=O)n(-c2cncc(C#N)c2)c(=O)n3-c2ccc(F)c(Cl)c2)C1 [Compound I-0948]	< 100	< 100	
COc1nc(N2CC[C@@H](C#N)C2)cc2c1c(=O)n(-c1cncc(Cl)c1)c(=O)n2-c1ccc(F)c(F)c1 [Compound I-0949]	< 100	< 100	
COc1nc(N2[C@@H]3CC[C@H]2CNC3)cc2c1c(=O)n(-c1cnc3cc(F)c(Cl)cn13)c(=O)n2-c1ccc(F)c(Cl)c1 [Compound I-0950]			IC50 (SARS-CoV-2 3CL protease; [4]): < 100 nM; EC50 (SARS-CoV-2; read-out: EC50 (50% SARS-CoV-2 infected cell death inhibitory concentration)): < 100 nM
COc1nc(N2CC[C@@H](C#N)C2)cc2c1c(=O)n(-c1cncc(OC(F)F)c1)c(=O)n2-c1ccc(F)c(Cl)c1 [Compound I-0951]	< 100	< 100	
COc1nc(N2CC[C@@H](O)C2)cc2c1c(=O)n(-c1cnc3cc(F)c(Cl)cn13)c(=O)n2-c1ccc(F)c(Cl)c1 [Compound I-0952]	< 100	< 100	
[2H]C([2H])([2H])O[C@@H]1CCN(c2cc3c(c(OC)n2)c(=O)n(-c2cncc(F)c2)c(=O)n3-c2ccc(F)c(Cl)c2)C1 [Compound I-0953]	< 100	< 100	
COc1nc(N2CCC(F)(F)C2)cc2c1c(=O)n(-c1cncc(C)c1)c(=O)n2-c1ccc(F)c(Cl)c1 [Compound I-0954]	< 100	< 100	
O=c1c2c(=O)n(-c3cnc4cc(F)ccn34)c(=O)n(-c3ccc(F)c(Cl)c3)c2cc2n1CC[C@@H]1CCCN21 [Compound I-0955]	3.1		EC50 (SARS-CoV-2; [2]): 540 nM
